Read-outs that look alike come from different tables or passages of the source.
Experiments:
NCH89 [1] = experiment: Crystal violet proliferation assay, NCH89; type: cell-based, human; settings: glioblastoma cell line, 48 h exposure, mean of three biological replicates ± standard deviation
NCH149 = experiment: Crystal violet proliferation assay, NCH149; type: cell-based, human; settings: glioblastoma cell line, 48 h exposure, mean of three biological replicates ± standard deviation
Method: In order to investigate the role of the fused phosphaphenalene ring in the bio-activity of the drug, the ability of Compound 5 to inhibit cell proliferation in the glioblastoma cell lines NCH82, NCH89 and NCH149 was examined. For this purpose, cells were incubated with increasing concentrations of Compound 5 and cell proliferation was evaluated by crystal violet assay.
The effect of different compounds on cell growth was evaluated by the crystal violet method as described earlier (J. P. Rigalli et al., Cancer Lett. 2016, 376, 165-172). Briefly, cells were seeded in 96-well plates (10,000 cells/well). After 24 h cell culture medium was replaced by fresh compound-containing medium (ten different concentrations (0.01 to 200 μM μM)). After 48 h of exposure extent of cell proliferation inhibition was determined by crystal violet staining of surviving cells. Therefore, cells were washed and stained with 0.5% crystal violet solution (2.5 g in 100 ml methanol, diluted with 400 ml aqua bidest) for 15 min, rinsed and dried overnight.
Next, crystal violet was solubilized in methanol and absorbance was measured at 555 nm. The proliferative index was calculated as crystal violet absorption intensity as percentage relative to baseline (no cells) as described before (T. Peters et al., Naunyn Schmiedebergs Arch Pharmacol. 2006, 372, 291-299.) Cell survival plotted against the decimal logarithm of drug concentration in μM (c (of compound x) in μM) and fitted to a sigmoidal dose-response curve using Graph Pad Prism 7.02 (GraphPad Software, San Diego, USA).

NCH82 [2] = experiment: Crystal violet proliferation assay, NCH82; type: cell-based, human; settings: glioblastoma cell line, 48 h exposure, mean of three biological replicates ± standard deviation
[3] = Stability under controlled thermodynamic conditions upon repetitive cycles of illumination; type: physicochemical; settings: data not shown
Solubility in solvents = type: physicochemical
Description: Importantly, all compounds 1-4 readily dissolved in DMSO/H2O mixtures 1:9. Compound 1 was the least soluble and started to precipitate at concentrations higher than 0.1 M.

[4] = Stability in dimethylsulfoxide/H2O solutions; type: physicochemical; settings: over weeks
NCH89 [5] = settings: Deponte M. et al. 2005; read-out: IC50, proliferation of NCH89; cited from earlier work
NCH82 [6] = settings: Deponte M. et al. 2005; read-out: IC50, proliferation of NCH82; cited from earlier work
NCH89 [7] = experiment: Annexin V apoptosis assay (flow cytometry), NCH89; type: cell-based, human
Method: (§1) It was further analyzed whether Compound 4 could sensitize GBM cells (NCH82 and NCH89) and GSCs (NCH421k, NCH644, and NCH660h) to apoptosis. The increase of apoptotic/necrotic cells with increasing concentrations of Compound 4 is illustrated in FIG. 3.
(§2) Thus, after a 48 hour-incubation period with different concentrations of Compound 4, the conventional GBM cells and GSCs were analyzed by flow cytometry. Annexin V and propidium iodide (PI) were used as indicators for apoptosis/necrosis. In line with the obtained IC50 values listed in Table 2, NCH82 cells appeared to be the most sensitive GBM cell line.
(§3) To quantitate the extent of apoptosis and necrosis, either annexin V staining combined with DAPI or double labeling of cells with annexin V and propidium iodide (PI) was used. The double labeling allows the distinction between apoptotic (annexin V^pos/DAPI^neg or annexin V^pos/PI^neg) and necrotic (annexin V^pos/DAPI^pos or annexin V^pos/PI^pos) cells. Cells were seeded in a 6-well plate (2.5×10^5/well) and left to attach overnight. Medium was replaced by fresh medium containing defined drug concentrations or compound solvent DMSO (untreated control) and incubated for 24 h. As positive control cells were treated with 1 μM of the apoptosis-inducing reagent staurosporin (#9953, Cell Signaling Technology, Danvas, USA). […]

NCH82 [8] = experiment: Annexin V apoptosis assay (flow cytometry), NCH82; type: cell-based, human; settings: drug concentration of 2 μM, 48 hour-incubation (FIG. 3B)
Method: as §2
To quantitate the extent of apoptosis and necrosis, either annexin V staining combined with DAPI or double labeling of cells with annexin V and propidium iodide (PI) was used. The double labeling allows the distinction between apoptotic (annexin V^pos/DAPI^neg or annexin V^pos/PI^neg) and necrotic (annexin V^pos/DAPI^pos or annexin V^pos/PI^pos) cells. […]
After treatment supernatant containing apoptotic and necrotic cells was collected, cells were harvested, washed, and up to 1×10^6 cells were incubated with FITC-conjugated annexin V antibody diluted in 1:1000 DAPI solution following manufactures instructions (#51-65874X, BD Bioscienes, Franklin Lakes, USA) or incubated with FITC-conjugated annexin V antibody and PI for 15 min following manufacturer instructions (#51-65974X, BD Biosciences, Franklin Lakes, USA). Cells were acquired by flow cytometry using a BD LSRII flow cytometer (BD Bioscienes, Franklin Lakes, USA) and analyzed by FlowJo Software v7.6.5 (TreeStar, Ahland, USA).

[9] = test system: NCH82, NCH89, NCH125, and NCH210 cells; experiment: Wound-healing (scratch) assay, tumor cell migration; type: cell-based, human
Method: Besides an increased tumor cell proliferation, a highly invasive cell growth drives malignancy of GBM. To obtain a more complete picture of the anti-cancer action of the compounds according to the invention, the effects of compound 4 on GBM cell invasion were investigated using a conventional wound-healing assay with NCH82, NCH89, NCH125, and NCH210 cells.
The results of the wound-healing assay are depicted in FIG. 2. […] The cells were imaged at 0 hours (t0) and at 24 hours (t1) after introducing the scrape. Cell migration was assessed by measuring cell-free areas at t0 and their reduction at t1.
To assess the effect of the drugs on cell migration in vitro cells were seeded in 6-well plates (5×10^5/Well) and left to attach. On the next day the cell monolayer was scraped in a straight line to create a “scratch” with a p200 pipet tip. […] Phase contrast images were acquired at 0 h and after 12 h of exposure to the respective drug concentration using a BX50 microscope with a SC30 camera (both Olympus, Tokyo, Japan). The cell-free areas at both time points were quantified and compared using the imaging software cellSens (Olympus, Tokyo, Japan).

[10] = test system: GSCs (NCH421k, NCH644, and NCH660h); experiment: Annexin V apoptosis assay (flow cytometry), GSCs; type: cell-based, human; settings: 48 hour-incubation (FIG. 3C)
Method: as §1, §2, §3

[11] = biological target: human glutathione reductase (Homo sapiens, UniProt P00390); settings: Jortzik E. et al. 2014; cited from earlier work
Chain of human glutathione reductase (P00390 44-522): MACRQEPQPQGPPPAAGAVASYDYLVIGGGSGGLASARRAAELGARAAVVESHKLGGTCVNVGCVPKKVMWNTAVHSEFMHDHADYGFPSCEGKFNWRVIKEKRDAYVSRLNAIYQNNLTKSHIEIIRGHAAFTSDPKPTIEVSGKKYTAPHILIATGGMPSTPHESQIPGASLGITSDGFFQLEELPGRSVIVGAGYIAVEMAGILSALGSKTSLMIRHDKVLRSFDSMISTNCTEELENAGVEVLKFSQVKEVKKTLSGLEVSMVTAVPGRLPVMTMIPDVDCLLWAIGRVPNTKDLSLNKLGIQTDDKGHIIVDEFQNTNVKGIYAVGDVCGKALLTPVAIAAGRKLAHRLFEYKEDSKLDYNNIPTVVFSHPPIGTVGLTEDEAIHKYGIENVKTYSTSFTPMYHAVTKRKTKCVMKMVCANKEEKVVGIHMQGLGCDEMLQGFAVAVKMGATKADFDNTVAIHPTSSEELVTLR

thioredoxin reductase = thioredoxin reductase (Homo sapiens, UniProt Q16881); settings: Jortzik E. et al. 2014; cited from earlier work
Chain of thioredoxin reductase (Q16881 151-649 limits assumed): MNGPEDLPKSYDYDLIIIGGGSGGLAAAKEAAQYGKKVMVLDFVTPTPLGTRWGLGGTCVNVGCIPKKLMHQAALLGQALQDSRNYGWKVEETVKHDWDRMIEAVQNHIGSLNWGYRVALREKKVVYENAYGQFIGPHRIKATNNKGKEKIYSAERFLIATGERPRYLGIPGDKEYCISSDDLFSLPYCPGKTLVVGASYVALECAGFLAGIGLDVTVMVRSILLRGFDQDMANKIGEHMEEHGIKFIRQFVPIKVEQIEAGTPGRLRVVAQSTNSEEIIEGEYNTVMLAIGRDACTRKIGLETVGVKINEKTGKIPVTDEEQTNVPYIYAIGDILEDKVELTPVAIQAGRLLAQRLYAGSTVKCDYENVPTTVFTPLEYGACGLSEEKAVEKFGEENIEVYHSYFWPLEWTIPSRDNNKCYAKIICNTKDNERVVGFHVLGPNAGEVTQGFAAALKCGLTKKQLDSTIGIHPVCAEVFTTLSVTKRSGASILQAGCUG

Work on Cn1ccc2c1-c1cccc3cccc(c13)[P+]2([Au-][Cl])c1ccccc1 (stereo not drawn) [Compound 5] yielded an IC50 (NCH89 [1]) of 15.1 µM, an IC50 (NCH149) of 8.87 µM and an IC50 (NCH82 [2]) of 8.1 µM.
For CC(=O)OC[C@H]1O[C@@H]([S][Au-][P+]2(c3ccccc3)c3ccn(S(=O)(=O)c4ccccc4)c3-c3cccc4cccc2c34)[C@H](OC(C)=O)[C@@H](OC(C)=O)[C@@H]1OC(C)=O (stereo partly drawn) [Compound 8], the IC50 (NCH89 [1]) was 4.49 µM, the “stability upon repetitive cycles of illumination” value [3] was “very high stability” and the IC50 (NCH149) was 2.85 µM. It also gave an IC50 (NCH82 [2]) of 1.37 µM.
With [Cl][Au][PH]1(c2ccccc2)c2cscc2-c2cccc3cccc1c23 [Compound 1] the “concentration above which precipitation starts” value (Solubility in solvents; DMSO/H2O mixtures 1:9) was “higher than 0.1 M” and the “stability in dimethylsulfoxide/H2O solutions” value [4] was “high stability”.
For [Cl][Au][PH]1(c2ccccc2)C(c2ccccn2)=CC=C1c1ccccn1 [GoPI, [1-phenyl-2,5-di(2-pyridyl)phosphole]AuCl], the IC50 (NCH89 [5]) is given as 10.8 ± 0.8 µM and the IC50 (NCH82 [6]) is given as 12.5 ± 0.8 µM.
For CC(=O)OCC1OC([S][Au][PH]2(c3ccccc3)c3cscc3-c3cccc4cccc2c34)C(OC(C)=O)C(OC(C)=O)C1OC(C)=O (stereo not drawn) [Compound 4], the “apoptotic/necrotic cells, NCH89” value (NCH89 [7]; 1 μM, 2 μM, and 10 μM for 24 hours (FIG. 3A)) was “dose-dependent increase of apoptotic/necrotic cells”, the “cell death, NCH89” value (NCH89 [7]; concentration of 2 μM, 48 hour-incubation (FIG. 3B)) was “no cell death” and the “induction of apoptosis, NCH82” value (NCH82 [8]) was “induced apoptosis in a high percentage of cells”. For the same compound, the “solubility in methanol, ethanol, DCM, CHCl3, Et2O and acetone” value (Solubility in solvents) was “soluble”, the “solubility in pentane and hexane” value (Solubility in solvents) was “insoluble” and the “wound closure compared to untreated control cells” value ([9]; at least the corresponding IC50 concentrations, 24 hours) was “significantly decreased wound closure”. For the same compound, the wound closure ([9]; concentrations c(IC50)/2 and c(IC50)/10, 24 hours) was “not significantly affected” and the “induction of apoptosis, GSCs” value [10] was “induction of apoptosis could be demonstrated but to a lesser extent”.
In the case of “1-phenyl-bis(2-pyridyl)phosphole gold chloride thio-β-d-glucose tetraacetate [GoPI-sugar]”, the IC50 [11] is given as 0.0885 µM and the IC50 (thioredoxin reductase) is given as 0.0043 µM.
